Source: patent publication US6413517B1, “Identification of broadly reactive DR restricted epitopes” (Epimmune, Inc., priority 1997, dated 2002)
Read-outs that look alike come from different tables or passages of the source.

Legend:
[1] = target: T1, DRB1*0101 (DR1) (Homo sapiens, UniProt P01903+P01911, A100R/D57E/F55L/F60I/F76Y/I96L/L162R/M171V/P40L/Q125E/R42F/V115G/Y59C); experiment: biochemical; format: binding; details: Binding Capacity (IC 50% nM) DR1,4,7 DRB1
T1 construct: Epstein-Barr virus (EBV) transformed homozygous cell lines were used as sources; endogenous in cells; host or cells: LG2 (EBV-transformed homozygous B cell line)

[2] = target: T2, DRB1*0901 (DR9) (Homo sapiens, UniProt P01903+P01911, A100R/A103E/D57H/D86V/F55Y/F60I/F76Y/I96F/K127E/L162R/M171V/P40D/Q125H/Q99R/R33Q/R42F/S133A/S66N/T210M/V115G/W38K/Y107V/Y59G/Y89S); experiment: biochemical; format: binding
T2 construct: Epstein-Barr virus (EBV) transformed homozygous cell lines were used as sources; endogenous in cells

[3] = target: T3, DRB1*1101 (DR5w11) (Homo sapiens, UniProt P01903+P01911, A100R/A169T/A87E/I96F/K41T/L162R/M171V/P40S/Q125H/Q178H/Q39Y/Q99D/R42S/S66Y/T262R/V115G/W38E); experiment: biochemical; format: binding
T3 construct: Epstein-Barr virus (EBV) transformed homozygous cell lines were used as sources; endogenous in cells; host or cells: SWEIG (EBV-transformed homozygous B cell line)

[4] = target: T4, DRB1*0301 (DR3w17) (Homo sapiens, UniProt P01903+P01911, A100K/A102G/A103R/A169T/F55Y/I96L/K41T/L162R/M171V/P40S/Q125H/Q178H/Q39Y/R42S/S66N/T106N/T262R/W38E/Y61H); details: read-out: Binding Capacity (IC 50% nM) Other Alleles DR3
[5] = target: T5, DRB1*1302 (DR6w19) (Homo sapiens, UniProt P01903+P01911, A100E/A169T/K41T/L162R/M171V/P40S/Q125H/Q178H/Q39Y/Q99D/R42S/S66N/T262R/V115G/W38E/Y61H); experiment: biochemical; format: binding
T5 construct: Epstein-Barr virus (EBV) transformed homozygous cell lines were used as sources; the source of Class II molecules the EBV transformed homozygous cell line H0301; endogenous in cells; host or cells: H0301 (EBV-transformed homozygous B cell line)

[6] = target: T6, DRB1*1201 (DR5w12) (Homo sapiens, UniProt P01903+P01911, A100R/A169T/D57E/D86V/F55L/H45Y/K41T/L162R/M171V/P40S/Q125H/Q178H/Q39Y/Q99D/R42G/S66L/T262R/V114A/V67L/W38E/Y59H/Y61H/Y89S); experiment: biochemical; format: binding
T6 construct: Epstein-Barr virus (EBV) transformed homozygous cell lines were used as sources; endogenous in cells; host or cells: Herluf (EBV-transformed homozygous B cell line)

[7] = target: T7, DRB1*0401 (DR4w4) (Homo sapiens, UniProt P01903+P01911, A100K/A169T/F76Y/I96L/K127E/L162R/M171V/N62H/P40V/Q125Y/R42H/S133A/S149N/S66Y/V115G/V209L/W38E); experiment: biochemical; format: binding; details: Binding Capacity (IC 50% nM) DR1,4,7 DR4w4
T7 construct: Epstein-Barr virus (EBV) transformed homozygous cell lines were used as sources; endogenous in cells; host or cells: PREISS (EBV-transformed homozygous B cell line)

[8] = target: T4, DRB1*0301 (DR3w17); experiment: biochemical; details: Binding Capacity (IC50% nM) DR3
[9] = target: T8, DRB1*1501 (DR2w2b) (Homo sapiens, UniProt P01903+P01911); experiment: biochemical; format: binding
T8 construct: expressed in transfected cells; host or cells: transfected fibroblasts L466.1

[10] = target: T9, DRB1*0802 (DR8w2) (Homo sapiens, UniProt P01903+P01911, A100R/A103L/A169T/F76Y/H45Y/I96F/K41T/L162R/M171V/P40S/Q125H/Q178H/Q39Y/Q99D/R218S/R42G/S66Y/V115G/W38E); experiment: biochemical; format: binding
T9 construct: Epstein-Barr virus (EBV) transformed homozygous cell lines were used as sources; endogenous in cells; host or cells: OLL (EBV-transformed homozygous B cell line)

[11] = target: T10, DRB1*0701 (DR7) (Homo sapiens, UniProt P01903+P01911, A100R/A102G/A103Q/D57E/D86V/E43K/F76Y/K127E/L162R/M171V/P40G/Q125H/Q99D/R33Q/R42Y/R54Q/S133A/S66F/T210M/V115G/Y107V/Y59L/Y89S); experiment: biochemical; format: binding
T10 construct: Epstein-Barr virus (EBV) transformed homozygous cell lines were used as sources; endogenous in cells; host or cells: PITOUT (EBV-transformed homozygous B cell line)

[12] = target: T11, DRB5*0101 (DR2w2a) (Homo sapiens, UniProt P01903+Q30154); experiment: biochemical; format: binding
T11 construct: Epstein-Barr virus (EBV) transformed homozygous cell lines were used as sources; endogenous in cells; host or cells: GM3107 (EBV-transformed homozygous B cell line)

[13] = target: T12, DRB1*0405 (DR4w15) (Homo sapiens, UniProt P01903+P01911, A100R/A169T/D86S/F76Y/I96L/K127E/L162R/M171V/N62H/P40V/Q125Y/R42H/S133A/S149N/S66Y/V115G/V209L/W38E); experiment: biochemical; format: binding
T12 construct: Epstein-Barr virus (EBV) transformed homozygous cell lines were used as sources; endogenous in cells; host or cells: KT3 (EBV-transformed homozygous B cell line)

[14] = read-out: Binding Capacity (IC 50% nM) Other Alleles DR5w11
[15] = Binding Capacity (IC50% nM) DR6w19
[16] = read-out: Binding Capacity (IC 50% nM) Other Alleles DR6w19
[17] = Binding Capacity (IC50% nM) DR5w12
[18] = read-out: Binding Capacity (IC 50% nM) Other Alleles DR5w12
[19] = Binding Capacity (IC50% nM) DR8w2
[20] = read-out: Binding Capacity (IC 50% nM) Other Alleles DR8w2
[21] = Binding Capacity (IC 50% nM) Other Alleles DR2w2a
[22] = Binding Capacity (IC 50% nM) Other Alleles DR9
[23] = read-out: Binding Capacity (IC 50% nM) Other Alleles DR2w2b
[24] = Binding Capacity (IC 50% nM) DR1,4,7 DR7
[25] = Binding Capacity (IC 50% nM) Other Alleles DR4w15

T3 sequence (P01903 26-254, other chains not shown): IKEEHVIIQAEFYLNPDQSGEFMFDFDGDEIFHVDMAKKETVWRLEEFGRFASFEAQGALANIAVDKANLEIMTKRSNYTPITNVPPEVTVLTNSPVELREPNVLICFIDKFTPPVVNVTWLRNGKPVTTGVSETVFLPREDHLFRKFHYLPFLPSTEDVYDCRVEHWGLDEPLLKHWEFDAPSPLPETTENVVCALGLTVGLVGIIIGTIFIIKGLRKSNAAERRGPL

Q: Which results are given for `CC[C@H](C)[C@H](NC(=O)[C@H](CC(C)C)NC(=O)[C@H](CC(=O)O)NC(=O)[C@@H](NC(=O)[C@H](Cc1ccccc1)NC(=O)[C@H](Cc1ccc(O)cc1)NC(=O)[C@H](Cc1c[nH]cn1)NC(=O)[C@H](Cc1c[nH]cn1)NC(=O)[C@@H](N)[C@@H](C)O)C(C)C)C(=O)NCC(=O)NCC(=O)N[C@@H](C)C(=O)N[C@@H](CCSC)C(=O)N[C@@H](CC(C)C)C(=O)N[C@@H](CO)C(=O)N[C@@H](CC(C)C)C(=O)O` [Peptide 1136.47]?
A: IC50 [1]: < 1000 nM; IC50 ([2]; Binding Capacity (IC50% nM) DR9): > 10000 nM; IC50 ([2]; read-out: Binding Capacity (IC 50% nM) Other Alleles DR9): > 1000 nM; IC50 [3, 14]: > 1000 nM; IC50 [4]: > 1000 nM; IC50 [5, 15]: > 10000 nM; IC50 [5, 16]: > 1000 nM; IC50 [6, 17]: > 10000 nM; IC50 [6, 18]: > 1000 nM; IC50 [7]: < 1000 nM; IC50 [8]: > 10000 nM; IC50 ([9]; Binding Capacity (IC 50% nM) Other Alleles DR2w2b): < 1000 nM; IC50 [10, 19]: > 10000 nM; IC50 [10, 20]: > 1000 nM; IC50 ([11]; read-out: Binding Capacity (IC 50% nM) DR1,4,7 DR7): > 1000 nM; IC50 [12, 21]: < 1000 nM; IC50 ([13]; read-out: Binding Capacity (IC 50% nM) Other Alleles DR4w15): > 1000 nM

Q: Which results are given for `CC(C)C[C@H](NC(=O)CNC(=O)[C@H](C)NC(=O)[C@H](CC(C)C)NC(=O)[C@@H](NC(=O)[C@H](CO)NC(=O)[C@@H](NC(=O)[C@H](C)NC(=O)[C@H](CC(C)C)NC(=O)[C@H](CCCCN)NC(=O)[C@H](Cc1ccc(O)cc1)NC(=O)[C@@H](N)CCCCN)[C@@H](C)O)C(C)C)C(=O)N[C@@H](CC(C)C)C(=O)NCC(=O)N[C@@H](CC(N)=O)C(=O)O` [Peptide F107.09]?
A: IC50 [1]: < 1000 nM; IC50 [2, 22]: < 1000 nM; IC50 ([3]; Binding Capacity (IC 50% nM) Other Alleles DR5w11): < 1000 nM; IC50 [4]: > 1000 nM; IC50 ([5]; Binding Capacity (IC 50% nM) Other Alleles DR6w19): < 1000 nM; IC50 [6, 17]: > 10000 nM; IC50 [6, 18]: > 1000 nM; IC50 [7]: < 1000 nM; IC50 [8]: > 10000 nM; IC50 [9, 23]: > 1000 nM; IC50 ([10]; Binding Capacity (IC 50% nM) Other Alleles DR8w2): < 1000 nM; IC50 [11, 24]: < 1000 nM; IC50 [12, 21]: < 1000 nM; IC50 [13, 25]: < 1000 nM

Q: `CC(C)[C@H](NC(=O)[C@H](CO)NC(=O)[C@@H](NC(=O)[C@H](C)NC(=O)[C@H](CO)NC(=O)[C@H](CO)NC(=O)[C@H](C)NC(=O)[C@H](C)NC(=O)[C@H](Cc1ccc(O)cc1)NC(=O)[C@@H](NC(=O)[C@H](CO)NC(=O)CNC(=O)[C@H](CCC(N)=O)NC(=O)[C@@H]1CCCN1C(=O)[C@@H](N)CCC(=O)O)[C@@H](C)O)[C@@H](C)O)C(=O)N[C@@H](CC(=O)O)C(=O)O` [Peptide 1136.71] was tested. Which IC50 [1] did it give?
A: Its IC50 is less than 1000 nM.

Q: What about the IC50 [2, 22] of the same molecule?
A: The IC50 was less than 1000 nM.

Q: What about the IC50 [3, 14] of the same molecule?
A: Its IC50 is greater than 1000 nM.

Q: And the IC50 [4]?
A: The IC50 was greater than 1000 nM.

Q: What about the IC50 [5, 15] of the same molecule?
A: Its IC50 is greater than 10000 nM.

Q: And the IC50 [5, 16]?
A: The IC50 was greater than 1000 nM.

Q: And the IC50 [6, 17]?
A: Its IC50 is greater than 10000 nM.

Q: And the IC50 [6, 18]?
A: The IC50 was greater than 1000 nM.

Q: And the IC50 [7]?
A: The IC50 was less than 1000 nM.

Q: And the IC50 [8]?
A: Its IC50 is greater than 10000 nM.

Q: What about the IC50 ([9]; Binding Capacity (IC50% nM) DR2w2b) of the same molecule?
A: The IC50 was greater than 10000 nM.

Q: What about the IC50 [9, 23] of the same molecule?
A: The IC50 was greater than 1000 nM.

Q: What about the IC50 [10, 19] of the same molecule?
A: Its IC50 is greater than 10000 nM.

Q: And the IC50 [10, 20]?
A: The IC50 was greater than 1000 nM.

Q: And the IC50 [11, 24]?
A: The IC50 was less than 1000 nM.

Q: What about the IC50 ([12]; read-out: Binding Capacity (IC 50% nM) Other Alleles DR2w2a) of the same molecule?
A: Its IC50 is greater than 1000 nM.

Q: What about the IC50 [13, 25] of the same molecule?
A: The IC50 was less than 1000 nM.
